Experimental data published in patent US20120258141A9, “Methods Of Immune Modulation” (UNIVERSITY OF MEDICINE AND DENTISTRY OF NEW JERSEY, priority 2010, published 2012).
In brackets after ≈: the same amount, converted by molar mass. Entries after “also recorded” stand apart in the source; their conditions may differ.

Key:
[1] = test system: LPS-mediated TNF-α production, macrophage cell line; settings: macrophage cells; cited from earlier work
[2] = test system: oral pathogens, biofilm cultures of Streptococcus mutans; settings: Gram-positive and -negative, incl. S. mutans biofilm cultures; cited from earlier work
IL-8 mRNA = IL-8 mRNA levels by QPCR in OKF6/TERT cells; type: cell-based, Human; settings: IL-1β-treated cells, normalized to β2-Microglobulin, FIG. 4A
Method: Total cellular RNA was isolated from cultures using QIAshredder and RNeasy Mini Kit (Qiagen Valencia, Calif.). Total RNA was reversed transcribed using Superscript II reverse transcriptase kit as described by the manufacturer (Invitrogen, CA). Quantitative PCR (qPCR) was carried out using SYBR Green in a MyiQ iCycler (Bio-Rad). A total of 1 μl of cDNA (described above) was analyzed using final concentration of 100 nM of primers, 2×SYBR Green PCR Master Mix (Applied Biosystems, Foster City, Calif., USA) in volume of 20 μl. Prmer sequences were:
Amplification was carried out for 50 cycles (95° C., 15 seconds; 60° C., 60 seconds). The relative for mRNA expression in each sample was calculated based on its Ct value comparison to Ct of a housekeeping gene. […]
To examine the effect of mPE on the inflammatory response, gingival epithelial cells (the OKF6/TERT cell line) and the monocytic cell line, THP-1, were treated with rhIL-1β (100 ng/ml) in the presence of increasing concentrations (0, 2, or 5 ng/ml) of mPE. Secreted levels of IL-8 were measured by ELISA. […] This was not a result of cytotoxicity, as cell viability (as measured by XTT assay and trypan blue exclusion) was no lower than 93-96% at the highest concentration of mPE. To determine whether this was due to an effect on IL-8 secretion or on gene regulation, mRNA was isolated from treated cells IL-8 mRNA levels were quantified by QPCR. […]

[3] = test system: A. actinomycetemcomitans biofilms; experiment: Activity against A. actinomycetemcomitans biofilms (XTT metabolic assay, crystal violet, plating); type: cell-based, Aggregatibacter actinomycetemcomitans
Method: Aggregatibacter actinomycetemcomitans 1005 (Aa) (obtained from Dr. Helen Schreiner, New Jersey Dental School) were cultured on TSB agar (4% trypticase soy broth, 0.6% yeast extract, 0.8% dextrose, 0.4% NaHCO3, 75 μg/mL bactracin, 5 μg/mL vancomycin) at 37° C., 10% CO2. Single colonies were inoculated to TSB broth in 75-cm^2 tissue culture flasks. Biofilm was harvest upon the 90% confluence and resuspended into 1 mL PBS. Resuspension was vortexed vigorously for 1 minute and allowed to settle for 10 minutes. The supernatant was then diluted to 2.5×10^7 before seeded to 96-well plates to obtain even biofilms. Porphyromonas gingivalis W381 (obtained from Dr. Christopher Cutler, Stony Brook University Dental School) were cultured on TSB-blood agar (3% trypticase soy broth, 5% defibrinated sheep blood, 5 hemin, 0.5 μg/mL menadione, and 0.2 mg/mL KNO3) in an anaerobic chamber (80% N2, 10% H2, and 10% CO2) at 37° C. For biofilm formation, the same protocol as Aa under anaerobic condition was used.
Aa biofilms were cultured into 96-well plates (tissue culture treated, Falcon) for 18 hours. Serial dilutions of the mimetic compounds were made in 100 μL RPMI-1640 without Phenol red and added directly to the wells. Plates were cultured at 37° C., 10% CO2 for 24 hours. Medium was removed, and cell viability was evaluated by XTT assay using the In Vitro Toxicology Assay Kit (Sigma) according to the manufacturer's protocol. Metabolic activity was measured by reading in a plate-reader at 450 nm. […] Colonies were counted after 72 hours. […]
To quantify the activity of AMP mimetics on biofilms, the activity against two bacterial species associated with periodontitis, A. actinomycetemcomitans and P. gingivalis was measured under conditions that lead to biofilm formation (Kaplan et al., J. Bacteriol. 2003, 185, 1399-1404; Davey, Periodontol 2000, 2006, 42, 27-35). […] After 24 hours, the growth medium was replaced with RPMI (without Phenol Red) and an XTT assay was carried out to quantify the metabolic activity. Metabolic activity was quantified by measuring the OD at 450 nm and 600 nm. […]

[4] = test system: IL-8 secretion, THP-1 cells; experiment: IL-1β-induced IL-8 secretion (ELISA) in THP-1 cells; type: cell-based, Human
Method: (§1) The oral keratinocyte cell line OKF6/TERT (obtained from Dr. James Rhinewald, Harvard University) was cultured in Keratinocyte growth medium (Lonza) with hEGF, BPE (Bovine Pituitary Extract). Cells were subcultured in 6-well dishes 18 hours before stimulation. Cells were treated with 2 μg/mL, 5 μg/mL mPE with and without IL-1β stimulation (100 ng/mL, […]) for 2 hours, 4 hours and 18 hours. THP-1 cells were grown in suspension at RPMI 1640 with 10% FBS, and stimulated similarly.
(§2) Growth medium from stimulated cultures was collected either by aspiration (from keratinocytes) or after centrifugation at 1000 rpm for 15 minutes (for THP-1 cells). Cell debris was removed by centrifugation at 8,000 g (12,000 rpm) for 10 minutes at 4° C. To quantify IL-8 levels, the Human IL-8 Single Analyte ELISArray Kit (SA bioscience, MD) was used according to the manufacturer's protocol. The Cellular Activation of Signaling ELISA kit IKBα (SA bioscience, MD) was used to quantify both phosphorylated and whole IkBα levels in OKF6/TERT cells grown in a 96-well plate. All assays were performed in duplicate.
(§3) To examine the effect of mPE on the inflammatory response, gingival epithelial cells (the OKF6/TERT cell line) and the monocytic cell line, THP-1, were treated with rhIL-1β (100 ng/ml) in the presence of increasing concentrations (0, 2, or 5 ng/ml) of mPE. Secreted levels of IL-8 were measured by ELISA. […]

[5] = test system: OKF6/TERT and THP-1 cells; experiment: Cell viability by XTT assay and trypan blue exclusion; type: cell-based, Human; settings: highest concentration of mPE
Method: To examine the effect of mPE on the inflammatory response, gingival epithelial cells (the OKF6/TERT cell line) and the monocytic cell line, THP-1, were treated with rhIL-1β (100 ng/ml) in the presence of increasing concentrations (0, 2, or 5 ng/ml) of mPE. Secreted levels of IL-8 were measured by ELISA. […] The experiment was carried out in quadruplicate; error bars represent±SD. The inhibition by mPE was significant at both concentrations with p<0.01. […] This was not a result of cytotoxicity, as cell viability (as measured by XTT assay and trypan blue exclusion) was no lower than 93-96% at the highest concentration of mPE. To determine whether this was due to an effect on IL-8 secretion or on gene regulation, mRNA was isolated from treated cells IL-8 mRNA levels were quantified by QPCR.

P. gingivalis biofilms = experiment: Activity against P. gingivalis biofilms (XTT metabolic assay, crystal violet); type: cell-based, Porphyromonas gingivalis
Method: Aggregatibacter actinomycetemcomitans 1005 (Aa) (obtained from Dr. Helen Schreiner, New Jersey Dental School) were cultured on TSB agar (4% trypticase soy broth, 0.6% yeast extract, 0.8% dextrose, 0.4% NaHCO3, 75 μg/mL bactracin, 5 μg/mL vancomycin) at 37° C., 10% CO2. Single colonies were inoculated to TSB broth in 75-cm^2 tissue culture flasks. Biofilm was harvest upon the 90% confluence and resuspended into 1 mL PBS. Resuspension was vortexed vigorously for 1 minute and allowed to settle for 10 minutes. The supernatant was then diluted to 2.5×10^7 before seeded to 96-well plates to obtain even biofilms. […]
To test the activity against P. gingivalis biofilms, strain 381 was grown in 96-well plates under conditions (i.e., grown in a 96-well plate for 21 days in an anaerobic chamber in Brain Heart Infusion (BHI) medium) that favor biofilm formation (Davey, Periodontol 2000, 2006, 42, 27-35). mPE was added in serial dilutions, incubated anaerobically for 24 hours, and the medium was replaced with XTT in RPMI. Metabolic activity was quantified as above. To confirm the ability of XTT to measure activity in the biofilm, the growth medium was removed, and biomass was quantified by crystal violet staining, followed by destaining and quantification of the optical density. Staining was quantified by reading A600. […]

P. gingivalis = settings: planktonic form; cited from earlier work
A. actinomycetemcomitans = settings: planktonic form; cited from earlier work
[6] = test system: IL-8 secretion, OKF6/TERT cell line; experiment: IL-1β-induced IL-8 secretion (ELISA) in gingival epithelial cells; type: cell-based, Human
Method: as §1, §2, §3

[7] = test system: phosphorylated IκB / NF-κB activation; experiment: IκB phosphorylation (CASE ELISA) in OKF6/TERT cells; type: cell-based, Human; settings: 100 ng/ml IL-1β, 2 or 4 hours, 0, 2 or 5 μg/ml mPE, FIG. 4B
Method: Growth medium from stimulated cultures was collected either by aspiration (from keratinocytes) or after centrifugation at 1000 rpm for 15 minutes (for THP-1 cells). Cell debris was removed by centrifugation at 8,000 g (12,000 rpm) for 10 minutes at 4° C. To quantify IL-8 levels, the Human IL-8 Single Analyte ELISArray Kit (SA bioscience, MD) was used according to the manufacturer's protocol. The Cellular Activation of Signaling ELISA kit IKBα (SA bioscience, MD) was used to quantify both phosphorylated and whole IkBα levels in OKF6/TERT cells grown in a 96-well plate. All assays were performed in duplicate. OKF6/TERT cells were treated with mPE as above in the presence or absence of IL-1β. Total mRNA was isolated and IL-8 and hBD-2 mRNA levels were quantified by QPCR normalized to β2-Microglobulin. Levels are shown relative to the no-mPE sample for each group. The experiment was carried out in triplicate; error bars represent±SD. […] To determine whether this was due to an inhibition of NF-κB activation, gingival epithelial cells were treated with mPE in the presence or absence of 100 ng/ml IL-1β, and IκB phosphorylation levels were quantified using the CASE assay (SA Biosciences, MD), and quantified relative to total IκB levels). In particular, OKF6/TERT cells were grown in 96-well plates, treated with 100 ng/ml IL-1β for 2 or 4 hours in the presence of 0, 2 or 5 μg/ml mPE. […]

[8] = rhIL-1β 100 ng/ml, mPE 0, 2, or 5 ng/ml as printed, FIG. 3

Compound: NCCc1cc(Br)cc(C#Cc2cccc(C#Cc3cc(Br)cc(CCN)c3)c2)c1 [mPE]
- LPS-mediated TNF-α production [1]: inhibited
- activity against oral pathogens [2]: active
- IL-8 mRNA levels (IL-8 mRNA): inhibitory effect is at the level of gene expression
- reduction of metabolic activity (XTT) ([3]; 2-hour exposure, 16 ng/ml, FIG. 1C): 60%
- antimicrobial activity against biofilms (XTT metabolic activity) ([3]; 24 hours, FIG. 1A): potent antimicrobial activity
- reduction in viable colonies (plating) and biomass (crystal violet) ([3]; FIG. 1B): reduction in viable colonies paralleled the results from the XTT assay
- concentration sufficient to inhibit IL-1β-induced secretion of IL-8 ([4]; THP-1 cells): 2 µg/mL
- inhibition of IL-8 secretion [4, 8]: dose-dependent inhibition
- cell viability [5]: 93-96%
- activity against biofilm cultures (P. gingivalis biofilms): potent activity
- concentration at which biofilm and metabolic activity decrease to a baseline (P. gingivalis biofilms; 24 hours anaerobic, XTT and crystal violet, FIG. 2): 4 to 8 µg/mL
- MIC (P. gingivalis): 2.5 mg/L (≈ 4.79 µM)
- MIC (A. actinomycetemcomitans): 0.4 mg/L (≈ 0.766 µM)
- concentration sufficient to inhibit IL-1β-induced secretion of IL-8 ([6]; gingival epithelial cells): 2 µg/mL
- inhibition of IL-8 secretion [6, 8]: dose-dependent inhibition
- IL-1β-stimulated phosphorylated IκB levels / total IκB [7]: reduction in activation of NF-κB; also recorded: rapid, dose-dependent reduction
